The record followed here is patent publication US12252524B2, “GIP/GLP1 co-agonist compounds” (Eli Lilly and Company, priority 2018, dated 2025).

By Ki is commonly meant a dissociation constant, usually derived from enzyme kinetics or from competition with a known ligand. In general, EC50 refers to the concentration at which the effect is half-maximal.

For one assay, the target named is T1, human Gcg receptor (Homo sapiens, UniProt P47871).
T1 construct: expressed in transfected cells; crude membranes
As to the kind of experiment: [125I]-Glucagon binding (SPA), human Gcg receptor. To be noted: read-out: hGLcgR Ki, nM (SEM, n). Summed up:
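Scintillation counts are taken after membranes and WGA beads incubate and settle for 12 hours at room temperature. Buffer is 25 mM HEPES, pH 7.4, with CaCl2, MgCl2, bacitracin and Tween-20. Ki values, from four-parameter IC50 fits, are geometric means over independent days.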

In a further assay the target is T2, human GIP receptor (Homo sapiens, UniProt P48546).
T2 construct: expressed in transfected cells; crude membranes
T2 sequence (P48546 22-466): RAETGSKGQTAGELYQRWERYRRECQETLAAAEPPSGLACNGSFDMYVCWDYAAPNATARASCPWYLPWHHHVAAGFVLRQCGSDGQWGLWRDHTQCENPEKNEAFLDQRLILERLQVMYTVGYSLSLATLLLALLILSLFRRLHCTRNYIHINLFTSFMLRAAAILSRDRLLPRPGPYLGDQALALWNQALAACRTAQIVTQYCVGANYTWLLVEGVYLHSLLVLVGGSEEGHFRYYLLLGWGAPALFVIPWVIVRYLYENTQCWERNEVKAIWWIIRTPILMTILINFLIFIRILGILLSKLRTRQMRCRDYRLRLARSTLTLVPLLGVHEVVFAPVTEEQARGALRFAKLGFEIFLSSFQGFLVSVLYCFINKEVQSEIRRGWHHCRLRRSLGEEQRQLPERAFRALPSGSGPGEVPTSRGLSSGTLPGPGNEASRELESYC
The experiment in a line: [125I]-GIP binding (SPA), human GIP receptor. To be noted: read-out: hGIPR Ki, nM (SEM, n).

The target in assay [1] is human GLP-1 receptor (GLP-1R) (Homo sapiens, UniProt P43220). The experiment in a line: cAMP pharmacological functional assay in presence of casein, hGLP-1R. The assay is classed as cell-based. To be noted: HEK293 cells expressing hGLP-1R, 0.1% Casein, geometric mean; read-out: hGLP1R cAMP Rel EC50 nM (SEM, n).
The target of assay [2] is T3, gastric inhibitory peptide receptor (GIPR) (Homo sapiens, UniProt P48546).
T3 sequence (P48546 22-466): T2 sequence (P48546 22-466)
The experiment in a line: cAMP pharmacological functional assay in presence of casein, hGIPR. The settings on record: HEK293 cells expressing hGIPR, 0.1% Casein, geometric mean; read-out: hGIPR cAMP Rel EC50 nM (SEM, n). In kind it is cell-based.

Another assay concerns the target human GLP-1R (Homo sapiens, UniProt P43220). The experiment in a line: [125I]-GLP-1 binding (SPA), human GLP-1 receptor. Details: expressed in transfected cells; crude membranes. The settings on record: read-out: hGLP1R Ki, (nM) (SEM, n). Summed up: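 Assay buffer: HEPES 25 mM, pH 7.4, CaCl2 2.5 mM, MgCl2 1 mM, with EDTA-free protease inhibitors. Receptor came from crude cell membranes prepared by homogenization and centrifugation at 4° C. IC50s came from four-parameter fits (maximum, minimum, IC50, Hill slope) and were expressed as Ki geometric means with SEM.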

Numbered stars: 1 amine (or outer) side, 2 acyl side, 3 side chain; on linkers, the order of the positions; unused ones are H or OH. Square brackets hold non-standard residues; d marks the D form. Side chains are listed from the residue outwards. Peptide text beside a SMILES is read from it. * marks the point of attachment. C20 diacid = O=C(O)CCCCCCCCCCCCCCCCCCC(=O)*; αMePhe(2-F) = C[C@](N)(Cc1ccccc1F)C(=O)O; γGlu = O=C(O)[C@H](CCC(=O)[*:2])N[*:1]; Desaminotyrosyl = O=C(CCc1ccc(O)cc1)*; αMeF = C[C@](N)(Cc1ccccc1)C(=O)O; αMeL = CC(C)C[C@](C)(N)C(=O)O; AEEA = NCCOCCOCC(=O)O; Aib = CC(C)(N)C(=O)O

Chain of human GLP-1 receptor (GLP-1R) (P43220 24-463): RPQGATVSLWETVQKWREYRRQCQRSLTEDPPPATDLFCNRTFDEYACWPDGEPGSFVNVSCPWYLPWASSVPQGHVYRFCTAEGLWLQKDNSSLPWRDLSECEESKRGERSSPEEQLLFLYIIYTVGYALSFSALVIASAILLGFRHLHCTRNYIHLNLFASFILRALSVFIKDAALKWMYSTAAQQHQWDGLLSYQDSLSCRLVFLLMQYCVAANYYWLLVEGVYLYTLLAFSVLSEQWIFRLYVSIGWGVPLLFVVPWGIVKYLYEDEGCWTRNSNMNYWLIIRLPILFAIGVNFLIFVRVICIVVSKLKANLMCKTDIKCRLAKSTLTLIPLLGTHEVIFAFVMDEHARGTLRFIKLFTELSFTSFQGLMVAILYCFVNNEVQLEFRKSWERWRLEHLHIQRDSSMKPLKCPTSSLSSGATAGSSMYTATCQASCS
Chain of human GLP-1R (P43220 24-463): as above
T1 sequence (P47871 26-477): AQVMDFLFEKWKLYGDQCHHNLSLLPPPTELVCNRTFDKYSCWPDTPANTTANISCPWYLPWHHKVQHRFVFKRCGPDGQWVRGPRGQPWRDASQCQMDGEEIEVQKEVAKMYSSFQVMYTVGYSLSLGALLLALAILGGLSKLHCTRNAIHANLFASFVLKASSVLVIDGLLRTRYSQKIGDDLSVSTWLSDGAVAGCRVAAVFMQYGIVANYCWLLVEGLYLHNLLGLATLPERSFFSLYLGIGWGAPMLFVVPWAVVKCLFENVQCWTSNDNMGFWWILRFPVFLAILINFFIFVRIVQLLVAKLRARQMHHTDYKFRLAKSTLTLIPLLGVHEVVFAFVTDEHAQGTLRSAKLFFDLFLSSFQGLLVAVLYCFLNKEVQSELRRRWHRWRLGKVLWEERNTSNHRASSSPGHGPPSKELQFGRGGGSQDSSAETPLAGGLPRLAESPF

With `CC[C@H](C)[C@H](NC(=O)[C@H](CC(C)C)NC(=O)[C@H](Cc1ccc(O)cc1)NC(=O)[C@H](CCC(=O)O)NC(=O)[C@@H](NC(=O)[C@H](Cc1ccccc1)NC(=O)[C@H](C)NC(=O)C(C)(C)NC(=O)[C@H](CCC(N)=O)NC(=O)[C@H](C)NC(=O)[C@H](CCCCNC(=O)COCCOCCNC(=O)COCCOCCNC(=O)CC[C@H](NC(=O)CCCCCCCCCCCCCCCCCCC(=O)O)C(=O)O)NC(=O)[C@H](CCCCN)NC(=O)[C@H](CC(=O)O)NC(=O)[C@H](CC(C)C)NC(=O)[C@H](CC(C)C)NC(=O)[C@@H](NC(=O)[C@H](CO)NC(=O)[C@H](Cc1ccc(O)cc1)NC(=O)[C@H](CC(=O)O)NC(=O)[C@H](CO)NC(=O)[C@@H](NC(=O)[C@](C)(Cc1ccccc1)NC(=O)[C@@H](NC(=O)CNC(=O)[C@H](CCC(=O)O)NC(=O)C(C)(C)NC(=O)[C@@H](N)Cc1ccc(O)cc1)[C@@H](C)O)[C@@H](C)O)[C@@H](C)CC)[C@@H](C)CC)C(=O)N[C@@H](CCC(=O)O)C(=O)NCC(=O)NCC(=O)N1CCC[C@H]1C(=O)N[C@@H](CO)C(=O)N[C@@H](CO)C(=O)NCC(=O)N[C@@H](C)C(=O)N1CCC[C@H]1C(=O)N1CCC[C@H]1C(=O)N1CCC[C@H]1C(=O)N[C@@H](CO)C(N)=O` [Example 57], the Ki on human Gcg receptor was 26.1 nM; on human GIP receptor, 0.0583 nM; at human GLP-1R, 3 nM. Moreover, the 50% effective concentration (EC50) was 0.0668 nM in assay [1] and 0.0849 nM in assay [2].
As to `CC[C@H](C)[C@H](NC(=O)[C@H](CC(C)C)NC(=O)[C@H](Cc1ccc(O)cc1)NC(=O)[C@H](CCC(=O)O)NC(=O)[C@@H](NC(=O)[C@H](Cc1ccccc1)NC(=O)[C@H](CCC(=O)O)NC(=O)C(C)(C)NC(=O)[C@H](CCC(N)=O)NC(=O)[C@H](C)NC(=O)[C@H](CCCCNC(=O)COCCOCCNC(=O)COCCOCCNC(=O)CC[C@H](NC(=O)CCCCCCCCCCCCCCCCCCC(=O)O)C(=O)O)NC(=O)[C@H](CCC(=O)O)NC(=O)[C@H](CC(=O)O)NC(=O)[C@H](CC(C)C)NC(=O)[C@](C)(CC(C)C)NC(=O)[C@@H](NC(=O)[C@H](CO)NC(=O)[C@H](Cc1ccc(O)cc1)NC(=O)[C@H](CC(=O)O)NC(=O)[C@H](CO)NC(=O)[C@@H](NC(=O)[C@](C)(Cc1ccccc1F)NC(=O)[C@@H](NC(=O)CNC(=O)[C@H](CCC(=O)O)NC(=O)C(C)(C)NC(=O)[C@@H](N)Cc1c[nH]cn1)[C@@H](C)O)[C@@H](C)O)[C@@H](C)CC)[C@@H](C)CC)C(=O)N[C@@H](CCC(=O)O)C(=O)NCC(=O)NCC(=O)N1CCC[C@H]1C(=O)N[C@@H](CO)C(=O)N[C@@H](CO)C(=O)NCC(=O)N[C@@H](C)C(=O)N1CCC[C@H]1C(=O)N1CCC[C@H]1C(=O)N1CCC[C@H]1C(=O)N[C@@H](CO)C(N)=O` [Example 163] (H-H[Aib]EGT[αMePhe(2-F)]TSDYSI[αMeL]LDEK([AEEA-AEEA-γGlu-C20 diacid])AQ[Aib]EFIEYLIEGGPSSGAPPPS-NH2), the results for the Ki on human Gcg receptor, on human GIP receptor and at human GLP-1R were 117 nM, 0.116 nM and 10.8 nM, respectively. The concentration giving a half-maximal response (EC50) amounted to 0.0316 nM in assay [1] and 0.121 nM in assay [2].
Take `CC[C@H](C)[C@H](NC(=O)[C@H](CC(C)C)NC(=O)[C@H](Cc1ccc(O)cc1)NC(=O)[C@H](CCC(=O)O)NC(=O)[C@@H](NC(=O)[C@H](Cc1ccccc1)NC(=O)[C@H](C)NC(=O)C(C)(C)NC(=O)[C@H](CCC(N)=O)NC(=O)[C@H](C)NC(=O)[C@H](CCCCNC(=O)COCCOCCNC(=O)COCCOCCNC(=O)CC[C@H](NC(=O)CCCCCCCCCCCCCCCCCCC(=O)O)C(=O)O)NC(=O)[C@H](CCCCN)NC(=O)[C@H](CC(=O)O)NC(=O)[C@H](CC(C)C)NC(=O)[C@H](CC(C)C)NC(=O)[C@@H](NC(=O)[C@@H](CO)NC(=O)[C@H](Cc1ccc(O)cc1)NC(=O)[C@H](CC(=O)O)NC(=O)[C@H](CO)NC(=O)[C@@H](NC(=O)[C@H](Cc1ccccc1)NC(=O)[C@@H](NC(=O)CNC(=O)[C@H](CCC(=O)O)NC(=O)C(C)(C)NC(=O)[C@@H](N)Cc1ccc(O)cc1)[C@@H](C)O)[C@@H](C)O)[C@@H](C)CC)[C@@H](C)CC)C(=O)N[C@@H](CCC(=O)O)C(=O)NCC(=O)NCC(=O)N1CCC[C@H]1C(=O)N[C@@H](CO)C(=O)N[C@@H](CO)C(=O)NCC(=O)N[C@@H](C)C(=O)N1CCC[C@H]1C(=O)N1CCC[C@H]1C(=O)N1CCC[C@H]1C(=O)N[C@@H](CO)C(N)=O` [Example 81]: the inhibitory constant (Ki) worked out at 344 nM on human Gcg receptor, 0.198 nM on human GIP receptor and 2.88 nM on human GLP-1R. Moreover, the EC50 in assay [1] was 1.29 nM; in assay [2] it was 0.428 nM.
With `CC[C@H](C)[C@H](NC(=O)[C@H](CC(C)C)NC(=O)[C@H](Cc1ccc(O)cc1)NC(=O)[C@H](CCC(=O)O)NC(=O)[C@@H](NC(=O)[C@H](Cc1ccccc1)NC(=O)[C@H](C)NC(=O)C(C)(C)NC(=O)[C@H](CCC(N)=O)NC(=O)[C@H](C)NC(=O)[C@H](CCCCNC(=O)COCCOCCNC(=O)COCCOCCNC(=O)CC[C@H](NC(=O)CCCCCCCCCCCCCCCCCCC(=O)O)C(=O)O)NC(=O)[C@H](CCC(=O)O)NC(=O)[C@H](CC(=O)O)NC(=O)[C@H](CC(C)C)NC(=O)C(C)(C)NC(=O)[C@@H](NC(=O)[C@H](CO)NC(=O)[C@H](Cc1ccc(O)cc1)NC(=O)[C@H](CC(=O)O)NC(=O)[C@H](CO)NC(=O)[C@@H](NC(=O)[C@](C)(Cc1ccccc1)NC(=O)[C@@H](NC(=O)CNC(=O)[C@H](CCC(=O)O)NC(=O)C(C)(C)NC(=O)CCc1ccc(O)cc1)[C@@H](C)O)[C@@H](C)O)[C@@H](C)CC)[C@@H](C)CC)C(=O)N[C@@H](CCC(=O)O)C(=O)NCC(=O)NCC(=O)N1CCC[C@H]1C(=O)N[C@@H](CO)C(=O)N[C@@H](CO)C(=O)NCC(=O)N[C@@H](C)C(=O)N1CCC[C@H]1C(=O)N1CCC[C@H]1C(=O)N1CCC[C@H]1C(=O)N[C@@H](CO)C(N)=O` [Example 133] (Desaminotyrosyl-[Aib]EGT[αMeF]TSDYSI[Aib]LDEK([AEEA-AEEA-γGlu-C20 diacid])AQ[Aib]AFIEYLIEGGPSSGAPPPS-NH2), the Ki was found to be 216 nM on human Gcg receptor, 0.157 nM on human GIP receptor and 11.4 nM at human GLP-1R. Moreover, the concentration giving a half-maximal response (EC50) in assay [1] is 0.0436 nM; in assay [2] it was 0.0879 nM.
With `CC[C@H](C)[C@H](NC(=O)[C@H](CC(C)C)NC(=O)[C@H](Cc1ccc(O)cc1)NC(=O)[C@H](CCC(=O)O)NC(=O)[C@@H](NC(=O)[C@H](Cc1ccccc1)NC(=O)[C@H](C)NC(=O)C(C)(C)NC(=O)[C@H](CCC(N)=O)NC(=O)[C@H](C)NC(=O)[C@H](CCCCNC(=O)COCCOCCNC(=O)COCCOCCNC(=O)CC[C@H](NC(=O)CC[C@H](NC(=O)CCCCCCCCCCCCCCCCCCC(=O)O)C(=O)O)C(=O)O)NC(=O)[C@H](CCCCN)NC(=O)[C@H](CC(=O)O)NC(=O)[C@H](CC(C)C)NC(=O)[C@](C)(CC(C)C)NC(=O)[C@@H](NC(=O)[C@H](CO)NC(=O)[C@H](Cc1ccc(O)cc1)NC(=O)[C@H](CC(=O)O)NC(=O)[C@H](CO)NC(=O)[C@@H](NC(=O)[C@](C)(Cc1ccccc1)NC(=O)[C@@H](NC(=O)CNC(=O)[C@H](CCC(=O)O)NC(=O)C(C)(C)NC(=O)[C@@H](N)Cc1ccc(O)cc1)[C@@H](C)O)[C@@H](C)O)[C@@H](C)CC)[C@@H](C)CC)C(=O)N[C@@H](CCC(=O)O)C(=O)NCC(=O)NCC(=O)N1CCC[C@H]1C(=O)N[C@@H](CO)C(=O)N[C@@H](CO)C(=O)NCC(=O)N[C@@H](C)C(=O)N1CCC[C@H]1C(=O)N1CCC[C@H]1C(=O)N1CCC[C@H]1C(=O)N[C@@H](CO)C(N)=O` [Example 125], the Ki came out at 54.4 nM on human Gcg receptor, 0.0624 nM on human GIP receptor and 3.19 nM on human GLP-1R. The EC50 in assay [1] is 0.0478 nM; in assay [2] it was 0.0381 nM.
